Experimental data as given in US6884802B2, “6-heteroarylphenanthridines” (ALTANA Pharma AG, priority 2000, dated 2005).

Each compound was assayed on PDE4 (assay: Inhibition of PDE4 activity ([3H]cAMP hydrolysis, cytosol from human neutrophils)). Conditions: 0.5 μM cAMP, Motapizone 1 μM included to suppress PDE3, 37° C.
Format: biochemical
Protocol: Method for Measuring Inhibition of PDE4 Activity
PDE4 activity was determined as described by Thompson et al. (Adv Cycl Nucl Res 10: 69-92, 1979) with some modifications (Bauer and Schwabe, Naunyn-Schmiedeberg's Arch Pharmacol 311: 193-198, 1980). At a final assay volume of 200 μl (96 well microtiter plates) the assay mixture contained 20 mM Tris (pH 7.4), 5 mM MgCl2, 0.5 μM cAMP, [^3H]cAMP (about 30,000 cpm/assay), the test compound and an aliquot of cytosol from human neutrophils which mainly contains PDE4 activity as described by Schudt et al. (Naunyn-Schmiedeberg's Arch Pharmacol 344: 682-690, 1991); the PDE3-specific inhibitor Motapizone (1 μM) was included to suppress PDE3 activity originating from contaminating platelets. Serial dilutions of the compounds were prepared in DMSO and further diluted 1:100 (v/v) in the assays to obtain the desired final concentrations of the inhibitors at a DMSO concentration of 1% (v/v) which by itself only slightly affected PDE4 activity.
After preincubation for 5 min at 37° C., the reaction was started by the addition of substrate (cAMP) and the assays were incubated for further 15 min at 37° C. 50 μl of 0.2 N HCl was added to stop the reaction and the assays were left on ice for about 10 min. Following incubation with 25 μg 5′-nucleotidase (Crotalus atrox snake venom) for 10 min at 37° C., the assays were loaded on QAE Sephadex A-25 (1 ml bed volume). The columns were eluted with 2 ml of 30 mM ammonium formiate (pH 6.0) and the eluate was counted for radioactivity. Results were corrected for blank values (measured in the presence of denatured protein) which were below 5% of total radioactivity. […] The IC50-values for the compounds according to the invention for the inhibition of the PDE4 activity were determined from the concentration-inhibition curves by nonlinear-regression.

Compound	Inhibition of PDE4 activity [measured as −logC50 (mol/l)]
COc1cc2c(cc1OC)[C@@H]1CCCC[C@@H]1N=C2c1cccs1 (relative stereo) [Compound 7, cis-8,9-Dimethoxy-6-(thiophen-2-yl)-1,2,3,4,4a,10b-hexahydrophenanthridine]	8.14 −log(mol/l)
COc1cc2c(cc1OC)[C@@H]1CCCC[C@@H]1N=C2c1ccc(C)s1 (relative stereo) [Compound 8, cis-8,9-Dimethoxy-6-(5-methyl-thiophen-2-yl)-1,2,3,4,4a,10b-hexahydrophenanthridine]	8.19 −log(mol/l)
COc1cc2c(cc1OC)[C@@H]1CCCC[C@@H]1N=C2c1ccsc1 (relative stereo) [Compound 9, cis-8,9-Dimethoxy-6-(thiophen-3-yl)-1,2,3,4,4a,10b-hexahydrophenanthridine]	7.45 −log(mol/l)
COc1cc2c(cc1OC)[C@@H]1CCCC[C@@H]1N=C2c1cc2ccccc2[nH]1.O=C(O)C(F)(F)F (relative stereo) [Compound 10, cis-8,9-Dimethoxy-6-(1H-indol-2-yl)-1,2,3,4,4a,10b-hexahydrophenanthridine trifluoroacetate]	8.19 −log(mol/l)
COc1cc2c(cc1OC)[C@@H]1CCCC[C@@H]1N=C2c1cc2cc(F)ccc2[nH]1.O=C(O)C(F)(F)F (relative stereo) [Compound 11, cis-8,9-Dimethoxy-6-(5-fluoro-1H-indol-2-yl)-1,2,3,4,4a,10b-hexahydrophenanthridine trifluoroacetate]	8.14 −log(mol/l)
COc1ccc2cc(C3=N[C@H]4CCCC[C@H]4c4cc(OC)c(OC)cc43)[nH]c2c1.O=C(O)C(F)(F)F (relative stereo) [Compound 12, cis-8,9-Dimethoxy-6-(6-methoxy-1H-indol-2-yl)-1,2,3,4,4a,10b-hexahydrophenanthridine trifluoroacetate]	8.27 −log(mol/l)
COc1cc2c(cc1OC)[C@@H]1CCCC[C@@H]1N=C2c1ccc2ccccc2n1 (relative stereo) [Compound 15, cis-8,9-Dimethoxy-6-(quinolin-2-yl)-1,2,3,4,4a,10b-hexahydrophenanthridine]	7.68 −log(mol/l)
COc1cc2c(cc1OC)[C@@H]1CCCC[C@@H]1N=C2c1occc1C (relative stereo) [Compound 16, cis-8,9-Dimethoxy-6-(3-methyl-furan-2-yl)-1,2,3,4,4a,10b-hexahydrophenanthridine]	7.42 −log(mol/l)
COc1cc2c(cc1OC)[C@@H]1CCCC[C@@H]1N=C2c1cc2ccccc2s1 (relative stereo) [Compound 17, cis-8,9-Dimethoxy-6-(benzo[b]thiophen-2-yl)-1,2,3,4,4a,10b-hexahydrophenanthridine]	8.84 −log(mol/l)
COc1cc2c(cc1OC)[C@@H]1CCCC[C@@H]1N=C2c1oc2ccccc2c1C (relative stereo) [Compound 20, cis-8,9-Dimethoxy-6-(3-methyl-benzofuran-2-yl)-1,2,3,4,4a,10b-hexahydrophenanthridine]	8.53 −log(mol/l)
COc1cc2c(cc1OC)[C@@H]1CCCC[C@@H]1N=C2c1cc2cccc(OC)c2o1 (relative stereo) [Compound 21, cis-8,9-Dimethoxy-6-(7-methoxy-benzofuran-2-yl)-1,2,3,4,4a,10b-hexahydrophenanthridine]	8.51 −log(mol/l)
COc1ccc2oc(C3=N[C@H]4CCCC[C@H]4c4cc(OC)c(OC)cc43)cc2c1 (relative stereo) [Compound 23, cis-8,9-Dimethoxy-6-(5-methoxy-benzofuran-2-yl)-1,2,3,4,4a,10b-hexahydrophenanthridine]	8.33 −log(mol/l)
COc1cc2c(cc1OC)[C@@H]1CCCC[C@@H]1N=C2c1ccnc2ccccc12 [Compound 1, (−)-cis-8,9-Dimethoxy-6-quinolin-4-yl-1,2,3,4,4a,10b-hexahydrophenanthridine]	7.4 −log(mol/l)
